Converted amounts (≈) assume the structure as drawn. Where a SMILES comes first, the peptide text is derived from it. Bridges are numbered along the chain shown (N, C = ends).
Legend:
[1] = Retention time of the compound by RP-HPLC analysis; assay type: physicochemical
[2] = Kinetic solubility of compound in phosphate buffer at pH 7.4 by UV analysis; assay type: physicochemical; details: read-out: Kinetic_solubility
[3] = Octanol/buffer partition coefficient, logD of the compound at pH 7.4 incubated for 24 hrs by shake flask method based UV analysis; assay type: physicochemical
[4] = Apparent membrane permeability of the compound in PBS buffer at pH 7.4 measured after 24 hrs by PAMPA assay; assay type: ADME
[5] = Kinetic solubility of the compound by RP-HPLC analysis

Compound | Retention_time [1] [min] | solubility kinetic [2] [µM] | logD at 24 h [3] | Papp at 24 h [4] [×10⁻⁶ cm/s] | kinetic solubility [5] [µM] | Retention time [1] [min]
H-RWVWSPDSSGVAYWVWE-OH | 22.8 | 530 | 0.9 | 0.09 | – | –
H-RWVVRRDYRFDMGFDYWVWE-OH | 23 | 20 | -1.1 | 2.61 | – | –
H-RWVKRRDYRFDMGFDYWVWE-OH | – | 20 | -0.4 | 0.14 | 21900 | –
H-RWVARRDYRGDMGFNYWVWE-OH | 20.9 | 60 | -0.8 | 0.02 | – | –
H-RWVARRDYRGDMGFDYWVWE-OH | 21.5 | 20 | 0.6 | 1.59 | – | –
H-RWVWRDYRFDMGFDWVWE-OH | 25.2 | 20 | 0.1 | 5.28 | – | –
H-RWVARRDYRFDMGFDYWVWE-OH | 23.1 | 10 | 0.2 | 2.18 | – | –
H-RWVARAYGNYWYIDVWHWE-OH | 24.1 | 2 | 0.6 | 4.15 | – | –
CC(=O)CC(c1ccccc1)c1c(O)c2ccccc2oc1=O (stereo not given) [WARFARIN] | – | – | – | 7.06 | – | –
H-RWVAREGGWFGELAFNYWVWE-OH | 21.2 | 260 | -0.5 | 2.05 | – | –
H-RWVVRRDYRGDMGFDYWVWE-OH | – | 30 | -0.9 | 0.04 | – | 20.6

More lines, now with the values ahead:

Retention_time [1] [min] | solubility kinetic [2] [µM] | logD at 24 h [3] | Papp at 24 h [4] [×10⁻⁶ cm/s] | kinetic solubility [5] [µM] | Retention time [1] [min] | Compound
23.3 | 20 | 1.2 | 0.42 | – | – | H-RWVAREGMNTDWYFDYWHWE-OH
22.6 | 50 | 0.7 | 4.04 | – | – | H-RWVARRDYRFDMGFNYWVWE-OH
23.2 | 140 | 0.8 | 0.2 | – | – | H-RWVWRDLDIATTRDYWVWE-OH
19.5 | 1800 | -1.3 | 0.02 | – | – | H-RWVKRRDYRGDMGFDYWVWE-OH
21.8 | 10 | -0.5 | 2.55 | – | – | H-RWVARRDYRFDMGFDYWHWE-OH
18.8 | 18000 | -1.9 | 0.26 | – | – | H-RGVARRDYRGDPGFDYWHWE-OH
21.1 | 690 | 0.3 | 0.02 | – | – | H-RWVAREGMNTDGYFDYWHWE-OH
20.3 | 40 | 0.7 | 0.07 | – | – | H-RWVARRDYRGDMGFDYWHWE-OH
23.3 | 20 | 0.9 | 0.01 | – | – | H-RWVWRDYRGDMGFDWVWE-OH
22 | 10 (≈ 27.6 µg/mL) | -0.6 | 3.71 | – | – | CSCC[C@@H]1NC(=O)[C@H](CC(=O)O)NC(=O)[C@H](Cc2ccccc2)NC(=O)[C@H](CCCNC(=N)N)NC(=O)[C@H](Cc2ccc(O)cc2)NC(=O)[C@H](CC(=O)O)NC(=O)[C@H](CCCNC(=N)N)NC(=O)[C@H](CCCNC(=N)N)NC(=O)[C@H](C)NC(=O)[C@@H](NC(=O)[C@H](Cc2c[nH]c3ccccc23)NC(=O)[C@@H](N)CCCNC(=N)N)CSSC[C@@H](C(=O)N[C@@H](Cc2c[nH]c3ccccc23)C(=O)N[C@@H](CCC(=O)O)C(=O)O)NC(=O)[C@H](Cc2c[nH]c3ccccc23)NC(=O)[C@H](Cc2ccc(O)cc2)NC(=O)[C@H](CC(=O)O)NC(=O)[C@H](Cc2ccccc2)NC(=O)CNC1=O (H-RWCARRDYRFDMGFDYWCWE-OH; disulfide 3-18)
21.9 | 70 | -1.3 | 0.38 | – | – | H-RWVARAYGNYGYIDVWHWE-OH

From ChEMBL document CHEMBL5257058, “Passive Membrane Permeability of Sizable Acyclic β-Hairpin Peptides” (ACS Med Chem Lett, 2023)
